# According to patent US20100249234A1, “METHODS OF REDUCING VIRULENCE IN BACTERIA” (UWM RESEARCH FOUNDATION, INC., priority 2007, published 2010):
# Legend:
# Type in all cases: cell-based, Dickeya dadantii 3937 (Ech3937)
# hrpY mRNA = assay: qRT-PCR relative mRNA level of hrpY; conditions: MM supplemented with OCA, p>0.5 (FIG. 4)
# Protocol: (§1) Bacterial strains were grown in MM. Total RNA from the bacterial cells was isolated by using the TRI reagent method (Sigma, Mo.) and treated with Turbo DNA-free DNase kits (Ambion, TX) as described (Peng et al., 2006). An iScript cDNA Synthesis Kit (Bio-Rad, CA) was used to synthesize cDNA from 0.5 μg of treated total RNA. The Real Master Mix (Eppendorf, Westbury, N.Y.) was used for qRT-PCR reaction to quantify the cDNA level of target genes in different samples. The rplU was used as the endogenous control for data analysis. qRT-PCR data were analyzed using Relative Expression Software Tool as described (Pfaffl, M. W., Horgan, G. W., and Dempfle, L. (2002) Relative expression software tool (REST) for group-wise comparison and statistical analysis of relative expression results in real-time PCR. Nucleic Acids Res 30:e36.).
# hrpA mRNA = assay: qRT-PCR relative mRNA level of hrpA
# Protocol: as §1
# gacA mRNA = assay: qRT-PCR relative mRNA level of gacA; conditions: MM supplemented with OCA, p>0.5 (FIG. 4)
# Protocol: as §1
# hrpL mRNA = assay: qRT-PCR relative mRNA level of hrpL
# Protocol: as §1
# hrpA promoter = hrpA promoter activity, GFP reporter plasmid phrpA, flow cytometry (FACS); conditions: for GFP intensity (Mean Fluorescence Intensity) of Ech-Rif (phrpA) / GFP intensity (Mean Fluorescence Intensity) of Ech137 (phrpA): MM + 0.1 mM OCA; for GFP intensity (Mean Fluorescence Intensity) of Ech137 (phrpA): gacA mutant Ech137; for GFP intensity (Mean Fluorescence Intensity) of WPP96 (phrpA): hrpL mutant WPP96; for GFP intensity (Mean Fluorescence Intensity) of WPP90 (phrpA): hrpS mutant WPP90; for GFP intensity (Mean Fluorescence Intensity) of WPP67 (phrpA): hrpX mutant WPP67; for GFP intensity (Mean Fluorescence Intensity) of WPP92 (phrpA): hrpY mutant WPP92
# Protocol: (§2) FACS analysis of promoter activity of dspE, hrpA, hrpL, hrpN, and hrpS was carried out as described (Peng et al., 2006). Briefly, the wild-type Ech3937 and the mutant strains carrying the promoter reporter plasmid were grown on LB broth at 28° C. overnight and transferred to appropriate media. For FACS analysis, samples were collected by centrifugation, washed with 1× phosphate buffer saline (PBS) at 13,000 rpm for 1 min, and re-suspended in 1×PBS to ca 10^6 CFU/ml prior to being run in a FACS Calibur flow cytometer (BD Biosciences, CA). Three replicates were performed for each treatment.
# To identify potential compounds that repress activation of T3SS, analogs and isomers of TCA and intermediates of salicylic acid and phenypropanoid biosynthesis pathways in plants were further screened for their effect on Ech3937 hrpA expression by flow cytometry (Table 9). A green fluorescent protein (GFP) reporter plasmid phrpA (pProbe-AT derivative with PCR fragment containing hrpA promoter region) was constructed, resulting in a transcriptional fusion of hrpA promoter with GFP gene. Bacterial cells containing phrpA plasmid were grown in MM supplemented with 0.1 mM of each compound. GFP intensity, which is a measurement of hrpA promoter activity, was measured by flow cytometry.
# hrpS promoter = hrpS promoter activity, GFP reporter plasmid phrpS, flow cytometry (FACS)
# Protocol: as §2
# (§3) Since OCA and TCA induced the expression of hrpN, the effect of these two phenolic compounds on the expression of hrpA, hrpL, and hrpS was investigated further. […] GFP intensity was determined on gated populations of bacterial cells by flow cytometry and analyzed with the Cell Quest software (BD Biosciences, San Jose, Calif.). The lines labeled “1” stand for the GFP expression control base level of the Ech3937 containing pPROBE-AT vector; lines labeled “2” stand for the promoter activity of hrpS, hrpL, hrpA and hrpN in Ech3937 in MM; lines labeled “3” stand for the promoter activity of Ech3937 in MM supplemented with 0.1 mM OCA; lines labeled “4” stand for the promoter activity of hrpL mutant WPP96 in MM; lines labeled “5” stand for the promoter activity of hrpL mutant WPP96 in MM supplemented with 0.1 mM OCA. Values are representative of at least two experiments. […] Compared with MM alone, the average GFP fluorescence intensity of bacterial cells of Ech3937 (phrpA) was doubled when 0.1 mM of OCA and TCA were added to the medium (Table 4; FIG. 3). […] The mrp, whose protein product has an ATPase conserved domain (2e-06), was used as a reference gene in this study.
# dspE mRNA = assay: qRT-PCR relative mRNA level of dspE
# Protocol: as §1
# pPROBE-AT vector = assay: GFP expression control base level, pPROBE-AT vector, flow cytometry (FACS)
# Protocol: as §2, §3
# rsmB mRNA = assay: qRT-PCR relative mRNA level of rsmB
# Protocol: as §1
# HrpN = HrpN protein expression; conditions: MM supplemented with 0.1 mM of PCA (FIG. 15)
# Text: To further elucidate whether T3SS gene expression is mainly regulated through the HrpX/Y-HrpS-HrpL regulatory pathway, the expression of hrpA and hrpN in wild-type Ech3937 and hrpX (WPP67), hrpY (WPP92), hrpS (WPP90), and hrpL (WPP96) mutants in MM were examined. […] Similar expression of hrpA and hrpN was observed among WPP67, WPP92, WPP90 and WPP96 carrying phrpA and phrpN grown in MM and MM supplemented with PCA. […] Since PCA represses the expression of several T3SS genes such as hrpN, the effect of PCA on protein production of HrpN was further examined.
# hrpN mRNA = assay: qRT-PCR relative mRNA level of hrpN; conditions: 0.1 mM PCA, P=0.001 (FIG. 14)
# Protocol: as §1
# [1] = MM supplemented with 0.1 mM OCA (FIG. 4)
# [2] = MM + 0.1 mM compound, 6 h (Table 9)
# [3] = MM + 0.1 mM compound, 12 h (Table 4)
# [4] = MM + 0.1 mM compound, 12 h (Table 9)
# [5] = MM + 0.1 mM compound, 24 h (Table 9)
# [6] = MM + 0.1 mM PCA (MMPCA), 12 h (Table 10)
# [7] = MM + 0.1 mM PCA (MMPCA), 24 h (Table 10)
compound,measurement,setting,value
"O=C(O)/C=C/c1ccccc1O [OCA, o-coumaric acid]","hrpY gene expression, MM vs supplemented MM (qRT-PCR)",hrpY mRNA,No significant difference
same,hrpA mRNA compared with MM alone (qRT-PCR),hrpA mRNA; [1],significantly higher amount
same,"gacA gene expression, MM vs supplemented MM (qRT-PCR)",gacA mRNA,No significant difference
same,hrpL mRNA compared with MM alone (qRT-PCR),"hrpL mRNA; 0.1 mM OCA, 12 h of growth, P<0.01",about 3 fold
same,average GFP fluorescence intensity of Ech3937 (phrpA) compared with MM alone,"hrpA promoter; 0.1 mM compound, 12 h",doubled
same,GFP intensity (Mean Fluorescence Intensity) of Ech-Rif (phrpA),hrpA promoter; 6 h,18 ± 0
same,GFP intensity (Mean Fluorescence Intensity) of Ech-Rif (phrpA),hrpA promoter; 12 h,51 ± 2
same,GFP intensity (Mean Fluorescence Intensity) of Ech-Rif (phrpA),hrpA promoter; 24 h,49 ± 1
same,"expression of hrpA, GFP intensity (Mean Fluorescence Intensity), Ech3937 carrying phrpA",hrpA promoter; [2],15.5 ± 1.1
same,GFP intensity (Mean Fluorescence Intensity) of Ech3937 (phrpA),hrpA promoter; [3],82 ± 1
same,"expression of hrpA, GFP intensity (Mean Fluorescence Intensity), Ech3937 carrying phrpA",hrpA promoter; [4],115.5 ± 7.9
same,"expression of hrpA, GFP intensity (Mean Fluorescence Intensity), Ech3937 carrying phrpA",hrpA promoter; [5],225.8 ± 15.6
same,GFP intensity (Mean Fluorescence Intensity) of Ech137 (phrpA),hrpA promoter; 6 h,4.9 ± 0.1
same,GFP intensity (Mean Fluorescence Intensity) of Ech137 (phrpA),hrpA promoter; 12 h,5.9 ± 0.1
same,GFP intensity (Mean Fluorescence Intensity) of Ech137 (phrpA),hrpA promoter; 24 h,8.3 ± 0
same,GFP intensity (Mean Fluorescence Intensity) of WPP96 (phrpA),hrpA promoter; [3],6.5 ± 0.2
same,GFP intensity of Ech3937 (phrpS) compared with MM alone,"hrpS promoter; MM + 0.1 mM compound, 12 h",slightly lower GFP intensity
same,GFP intensity (Mean Fluorescence Intensity) of Ech3937 (phrpS),hrpS promoter; [3],56 ± 1
same,GFP intensity (Mean Fluorescence Intensity) of WPP96 (phrpS),"hrpS promoter; hrpL mutant WPP96, MM + 0.1 mM compound, 12 h (Table 4)",350 ± 17
same,dspE mRNA compared with MM alone (qRT-PCR),dspE mRNA; [1],significantly higher amount
same,GFP intensity (Mean Fluorescence Intensity) of Ech3937 (pPROBE-AT),"pPROBE-AT vector; MM + 0.1 mM OCA, 6 h",2.0 ± 0
same,GFP intensity (Mean Fluorescence Intensity) of Ech3937 (pPROBE-AT),"pPROBE-AT vector; MM + 0.1 mM OCA, 12 h",2.0 ± 0
same,GFP intensity (Mean Fluorescence Intensity) of Ech3937 (pPROBE-AT),"pPROBE-AT vector; MM + 0.1 mM OCA, 24 h",1.9 ± 0
same,GFP intensity (Mean Fluorescence Intensity) of Ech3937 (pPROBE-AT),pPROBE-AT vector; [3],2.0 ± 0
same,rsmB mRNA relative expression ratio,rsmB mRNA; Ech3937 in supplemented MM vs MM alone (normalized to 1),1.4
"O=C(O)/C=C/c1ccc(O)cc1 [PCA, p-coumaric acid]","hrpA mRNA compared with MM alone (normalized to 1), qRT-PCR","hrpA mRNA; 0.1 mM PCA, P=0.001 (FIG. 14)",significantly lower amount of mRNA
same,amount of HrpN protein compared with MM alone,HrpN,lower amount of HrpN
same,"hrpN mRNA compared with MM alone (normalized to 1), qRT-PCR",hrpN mRNA,significantly lower amount of mRNA
same,hrpL mRNA relative expression ratio,"hrpL mRNA; MM supplemented with PCA vs MM alone (normalized to 1), P=0.001",0.039
same,reduction of average GFP fluorescence intensity of Ech3937 (phrpA) compared with MM alone,"hrpA promoter; 0.05 and 0.1 mM of PCA, 12 h and 24 h (FIGS. 16A, 16B)",more than 4 fold
same,GFP intensity (Mean Fluorescence Intensity) of Ech3937 (phrpA),hrpA promoter; [6],10.3 ± 1.3
same,GFP intensity (Mean Fluorescence Intensity) of Ech3937 (phrpA),"hrpA promoter; MM + 0.1 mM PCA (MMPCA), 12 h (Table 11)",9.2 ± 0.4
same,GFP intensity (Mean Fluorescence Intensity) of Ech3937 (phrpA),hrpA promoter; [7],18.5 ± 3.5
same,GFP intensity (Mean Fluorescence Intensity) of Ech3937 (phrpA),"hrpA promoter; MM + 0.1 mM PCA (MMPCA), 24 h (Table 11)",12.7 ± 0.3
same,effect on expression of hrpA (screen result),hrpA promoter; MM + 0.1 mM compound (Table 9),inhibitors of the expression of hrpA
same,"expression of hrpA, GFP intensity (Mean Fluorescence Intensity), Ech3937 carrying phrpA",hrpA promoter; [2],6.9 ± 0.1
same,"expression of hrpA, GFP intensity (Mean Fluorescence Intensity), Ech3937 carrying phrpA",hrpA promoter; [4],10.2 ± 0.4
same,"expression of hrpA, GFP intensity (Mean Fluorescence Intensity), Ech3937 carrying phrpA",hrpA promoter; [5],11.4 ± 1.0
same,reduction of GFP fluorescence intensity of Ech3937 (phrpA),"hrpA promoter; PCA at 0.001, 0.005 and 0.01 (FIGS. 16A, 16B)",did not result in substantial reduction
same,GFP intensity (Mean Fluorescence Intensity) of WPP96 (phrpA),"hrpA promoter; MM + 0.1 mM PCA, 12 h",7.3 ± 0.1
same,GFP intensity (Mean Fluorescence Intensity) of WPP96 (phrpA),"hrpA promoter; MM + 0.1 mM PCA, 24 h",9.0 ± 1.6
same,GFP intensity (Mean Fluorescence Intensity) of WPP90 (phrpA),"hrpA promoter; MM + 0.1 mM PCA, 12 h",7.9 ± 0.2
same,GFP intensity (Mean Fluorescence Intensity) of WPP90 (phrpA),"hrpA promoter; MM + 0.1 mM PCA, 24 h",9.3 ± 0.2
same,GFP intensity (Mean Fluorescence Intensity) of WPP67 (phrpA),"hrpA promoter; MM + 0.1 mM PCA, 12 h",7.9 ± 0.2
same,GFP intensity (Mean Fluorescence Intensity) of WPP67 (phrpA),"hrpA promoter; MM + 0.1 mM PCA, 24 h",9.0 ± 1.3
same,GFP intensity (Mean Fluorescence Intensity) of WPP92 (phrpA),"hrpA promoter; MM + 0.1 mM PCA, 12 h",6.9 ± 0.1
same,GFP intensity (Mean Fluorescence Intensity) of WPP92 (phrpA),"hrpA promoter; MM + 0.1 mM PCA, 24 h",9.4 ± 0.7
same,GFP intensity (Mean Fluorescence Intensity) of Ech3937 (phrpS),hrpS promoter; [6],37.9 ± 1.3
same,GFP intensity (Mean Fluorescence Intensity) of Ech3937 (phrpS),hrpS promoter; [7],43.6 ± 2.6
same,"dspE mRNA compared with MM alone (normalized to 1), qRT-PCR","dspE mRNA; 0.1 mM PCA, P=0.001 (FIG. 14)",significantly lower amount of mRNA
same,GFP intensity (Mean Fluorescence Intensity) of Ech3937 (pPROBE-AT),"pPROBE-AT vector; MM + 0.1 mM PCA, 12 h (Table 10)",2.2 ± 0.2
same,GFP intensity (Mean Fluorescence Intensity) of Ech3937 (pPROBE-AT),"pPROBE-AT vector; MM + 0.1 mM PCA, 12 h (Table 11)",2.3 ± 0.1
same,GFP intensity (Mean Fluorescence Intensity) of Ech3937 (pPROBE-AT),"pPROBE-AT vector; MM + 0.1 mM PCA, 24 h (Table 10)",14.0 ± 10.1
same,GFP intensity (Mean Fluorescence Intensity) of Ech3937 (pPROBE-AT),"pPROBE-AT vector; MM + 0.1 mM PCA, 24 h (Table 11)",4.9 ± 0.1
same,"rsmB gene expression, MM vs supplemented MM (qRT-PCR)","rsmB mRNA; MM supplemented with PCA, p=0.928 (FIG. 14)",No significant difference
